Test results from patent US20240210412A1, “SULFONYL-TRIAZOLE COMPOUNDS USEFUL AS LIGANDS AND INHIBITORS OF PROSTAGLANDIN REDUCTASE 2” (University of Virginia Patent Foundation, priority 2021, published 2024).

Experiments:
Assay in all cases: SILAC LC-MS ABPP
Type in all cases: cell-based
Conditions in all cases: 25 μM 2 h, live DM93 cells
O43776 = target: T1, O43776 (Homo sapiens, UniProt O43776)
T1 construct: endogenous in cells; host or cells: DM93
Summary of the method: (§1)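 Competitive activity-based profiling in isotopically labelled DM93 melanoma cells. Heavy cells received 25 μM sulfonyl-triazole ligand and light cells vehicle, each for 2 h at 37 °C, before 2 h with 100 μM HHS-475. Labelled soluble proteins were tagged via CuAAC, combined, digested and enriched before LC-MS/MS.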

O60828 = target: T2, O60828 (Homo sapiens, UniProt O60828)
T2 construct: endogenous in cells; host or cells: DM93
T2 sequence (O60828 whole entry): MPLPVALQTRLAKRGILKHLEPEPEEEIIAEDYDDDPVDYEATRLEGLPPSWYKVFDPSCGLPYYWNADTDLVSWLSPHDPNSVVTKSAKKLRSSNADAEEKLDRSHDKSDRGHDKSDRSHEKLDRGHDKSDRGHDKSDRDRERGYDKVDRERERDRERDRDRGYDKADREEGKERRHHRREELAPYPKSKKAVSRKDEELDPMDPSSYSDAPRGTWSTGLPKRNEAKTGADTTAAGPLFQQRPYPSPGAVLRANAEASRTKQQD
Summary of the method: as §1

Q14847 = target: T3, Q14847 (Homo sapiens, UniProt Q14847)
T3 construct: performing SuTEx compound screening directly in cells; endogenous in cells; host or cells: DM93 cells (SILAC), soluble fraction
T3 sequence (Q14847 whole entry): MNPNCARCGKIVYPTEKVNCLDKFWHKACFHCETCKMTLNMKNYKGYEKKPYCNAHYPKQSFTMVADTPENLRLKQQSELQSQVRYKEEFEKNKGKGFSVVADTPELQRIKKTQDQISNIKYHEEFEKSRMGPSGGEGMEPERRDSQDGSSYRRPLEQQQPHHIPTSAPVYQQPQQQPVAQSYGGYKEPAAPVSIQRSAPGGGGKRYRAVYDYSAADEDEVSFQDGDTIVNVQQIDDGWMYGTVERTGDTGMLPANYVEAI
Summary of the method: as §1

O60763 = target: T4, O60763 (Homo sapiens, UniProt O60763)
T4 construct: endogenous in cells; host or cells: DM93
T4 sequence (O60763 whole entry): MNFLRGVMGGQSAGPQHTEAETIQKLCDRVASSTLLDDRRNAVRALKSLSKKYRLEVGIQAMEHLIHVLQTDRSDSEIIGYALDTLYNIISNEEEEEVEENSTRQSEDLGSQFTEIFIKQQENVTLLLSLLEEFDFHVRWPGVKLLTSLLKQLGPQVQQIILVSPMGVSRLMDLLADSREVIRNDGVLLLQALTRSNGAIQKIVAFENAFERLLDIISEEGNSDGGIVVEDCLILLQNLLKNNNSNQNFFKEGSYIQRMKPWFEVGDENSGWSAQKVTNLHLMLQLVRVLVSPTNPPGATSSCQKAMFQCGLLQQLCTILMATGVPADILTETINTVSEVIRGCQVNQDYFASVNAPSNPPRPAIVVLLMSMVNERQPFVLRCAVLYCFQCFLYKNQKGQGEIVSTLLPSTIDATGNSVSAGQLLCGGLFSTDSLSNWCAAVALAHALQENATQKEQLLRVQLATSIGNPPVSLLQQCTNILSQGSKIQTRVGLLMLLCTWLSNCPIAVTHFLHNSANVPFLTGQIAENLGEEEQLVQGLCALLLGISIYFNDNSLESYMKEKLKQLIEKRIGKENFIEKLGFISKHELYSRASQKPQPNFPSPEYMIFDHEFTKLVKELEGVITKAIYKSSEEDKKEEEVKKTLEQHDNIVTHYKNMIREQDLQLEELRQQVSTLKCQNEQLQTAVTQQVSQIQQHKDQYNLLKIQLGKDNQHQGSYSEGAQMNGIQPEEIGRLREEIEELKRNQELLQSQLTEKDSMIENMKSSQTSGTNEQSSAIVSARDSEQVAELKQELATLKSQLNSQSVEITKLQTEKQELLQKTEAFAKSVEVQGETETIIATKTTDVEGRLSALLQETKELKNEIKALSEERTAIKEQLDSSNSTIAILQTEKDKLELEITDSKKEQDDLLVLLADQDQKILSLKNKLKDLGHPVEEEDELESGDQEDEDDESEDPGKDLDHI
Summary of the method: as §1

P18206 = target: T5, P18206 (Homo sapiens, UniProt P18206)
T5 construct: Probe-modified proteins from the soluble fraction were conjugated to a desthiobiotin-azide tag; endogenous in cells; host or cells: DM93 (SILAC)
Summary of the method: as §1

P46940 = target: T6, P46940 (Homo sapiens, UniProt P46940)
T6 construct: endogenous in cells; host or cells: DM93 cells (SILAC)
Summary of the method: as §1

P62993 = target: T7, P62993 (Homo sapiens, UniProt P62993)
T7 construct: performing SuTEx compound screening directly in cells; endogenous in cells; host or cells: DM93 cells (SILAC)
T7 sequence (P62993 whole entry): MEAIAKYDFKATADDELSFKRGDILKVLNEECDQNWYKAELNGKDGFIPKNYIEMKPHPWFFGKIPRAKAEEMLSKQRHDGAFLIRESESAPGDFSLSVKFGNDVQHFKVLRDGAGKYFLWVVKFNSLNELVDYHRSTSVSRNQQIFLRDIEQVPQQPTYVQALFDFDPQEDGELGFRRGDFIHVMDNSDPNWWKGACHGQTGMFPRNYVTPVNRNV
Summary of the method: as §1

Q00535 = target: T8, Q00535 (Homo sapiens, UniProt Q00535)
T8 construct: performing SuTEx compound screening directly in cells; endogenous in cells; host or cells: DM93 cells (SILAC)
T8 sequence (Q00535 whole entry): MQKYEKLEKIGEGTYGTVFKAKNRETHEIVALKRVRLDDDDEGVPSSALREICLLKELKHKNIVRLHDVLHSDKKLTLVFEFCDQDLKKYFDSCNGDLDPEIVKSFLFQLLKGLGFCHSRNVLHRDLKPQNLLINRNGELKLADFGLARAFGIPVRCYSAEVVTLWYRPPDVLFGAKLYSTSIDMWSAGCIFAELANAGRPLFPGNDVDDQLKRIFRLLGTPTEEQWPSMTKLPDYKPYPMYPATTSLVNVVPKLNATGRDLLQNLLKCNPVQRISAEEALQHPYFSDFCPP
Summary of the method: as §1

Q8IWS0 = target: T9, Q8IWS0 (Homo sapiens, UniProt Q8IWS0)
T9 construct: endogenous in cells; host or cells: DM93 cells (SILAC), live-cell treatment
T9 sequence (Q8IWS0 whole entry): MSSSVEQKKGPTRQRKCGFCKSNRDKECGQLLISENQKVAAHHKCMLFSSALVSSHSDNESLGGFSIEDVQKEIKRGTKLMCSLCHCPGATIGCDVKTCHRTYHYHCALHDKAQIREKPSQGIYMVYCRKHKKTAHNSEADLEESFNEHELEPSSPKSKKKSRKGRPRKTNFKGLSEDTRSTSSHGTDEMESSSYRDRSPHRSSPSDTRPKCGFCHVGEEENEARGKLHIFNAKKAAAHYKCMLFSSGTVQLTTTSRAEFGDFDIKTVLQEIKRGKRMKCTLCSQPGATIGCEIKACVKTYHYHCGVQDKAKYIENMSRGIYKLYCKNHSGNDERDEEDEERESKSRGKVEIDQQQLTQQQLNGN
Summary of the method: as §1

Q9UFN0 = target: T10, Q9UFN0 (Homo sapiens, UniProt Q9UFN0)
T10 construct: endogenous in cells; host or cells: DM93 cells (SILAC)
T10 sequence (Q9UFN0 whole entry): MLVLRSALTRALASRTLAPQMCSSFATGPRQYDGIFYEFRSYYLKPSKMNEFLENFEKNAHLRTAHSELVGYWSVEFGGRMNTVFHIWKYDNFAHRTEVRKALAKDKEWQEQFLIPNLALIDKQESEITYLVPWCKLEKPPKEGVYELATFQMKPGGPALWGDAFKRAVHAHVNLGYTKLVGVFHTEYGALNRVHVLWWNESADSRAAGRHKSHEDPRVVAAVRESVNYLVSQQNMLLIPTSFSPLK
Summary of the method: as §1

P06400 = target: T11, P06400 (Homo sapiens, UniProt P06400)
T11 construct: endogenous in cells; host or cells: DM93 cells (SILAC)
T11 sequence (P06400 whole entry): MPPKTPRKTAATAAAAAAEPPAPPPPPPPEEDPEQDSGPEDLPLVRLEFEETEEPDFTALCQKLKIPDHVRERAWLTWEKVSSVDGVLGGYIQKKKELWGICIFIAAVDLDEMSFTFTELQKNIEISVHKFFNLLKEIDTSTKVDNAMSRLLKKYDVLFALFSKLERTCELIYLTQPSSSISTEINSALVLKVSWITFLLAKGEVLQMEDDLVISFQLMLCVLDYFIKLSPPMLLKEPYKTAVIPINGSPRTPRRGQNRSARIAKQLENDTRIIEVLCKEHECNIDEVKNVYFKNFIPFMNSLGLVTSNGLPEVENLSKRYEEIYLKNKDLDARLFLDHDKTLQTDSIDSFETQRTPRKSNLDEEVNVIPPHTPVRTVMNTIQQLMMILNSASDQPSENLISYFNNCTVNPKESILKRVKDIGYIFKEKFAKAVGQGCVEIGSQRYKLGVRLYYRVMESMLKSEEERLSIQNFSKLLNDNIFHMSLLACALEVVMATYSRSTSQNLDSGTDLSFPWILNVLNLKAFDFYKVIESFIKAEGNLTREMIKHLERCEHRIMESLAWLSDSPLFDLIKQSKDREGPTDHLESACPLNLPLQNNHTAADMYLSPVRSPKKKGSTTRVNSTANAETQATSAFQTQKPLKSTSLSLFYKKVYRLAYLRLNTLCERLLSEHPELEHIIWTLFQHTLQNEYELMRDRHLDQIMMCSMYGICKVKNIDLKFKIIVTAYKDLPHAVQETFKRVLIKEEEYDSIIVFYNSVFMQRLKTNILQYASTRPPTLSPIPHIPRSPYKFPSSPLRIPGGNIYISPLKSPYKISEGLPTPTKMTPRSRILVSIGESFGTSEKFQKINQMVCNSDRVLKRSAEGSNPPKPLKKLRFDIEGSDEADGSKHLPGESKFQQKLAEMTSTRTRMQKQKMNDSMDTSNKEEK
Summary of the method: as §1

Q06203 = target: T12, Q06203 (Homo sapiens, UniProt Q06203)
T12 construct: performing SuTEx compound screening directly in cells; endogenous in cells; host or cells: DM93 cells (SILAC)
Summary of the method: as §1

P23921 = target: T13, P23921 (Homo sapiens, UniProt P23921)
T13 construct: Probe-modified proteins from the soluble fraction were conjugated to a desthiobiotin-azide tag; endogenous in cells; host or cells: DM93 (SILAC)
Summary of the method: as §1

Q7Z6M1 = target: T14, Q7Z6M1 (Homo sapiens, UniProt Q7Z6M1)
T14 construct: endogenous in cells; host or cells: DM93 cells (SILAC), live-cell treatment
Summary of the method: as §1

P12081 = target: T15, P12081 (Homo sapiens, UniProt P12081)
T15 construct: endogenous in cells; host or cells: DM93 cells (SILAC)
T15 sequence (P12081 whole entry): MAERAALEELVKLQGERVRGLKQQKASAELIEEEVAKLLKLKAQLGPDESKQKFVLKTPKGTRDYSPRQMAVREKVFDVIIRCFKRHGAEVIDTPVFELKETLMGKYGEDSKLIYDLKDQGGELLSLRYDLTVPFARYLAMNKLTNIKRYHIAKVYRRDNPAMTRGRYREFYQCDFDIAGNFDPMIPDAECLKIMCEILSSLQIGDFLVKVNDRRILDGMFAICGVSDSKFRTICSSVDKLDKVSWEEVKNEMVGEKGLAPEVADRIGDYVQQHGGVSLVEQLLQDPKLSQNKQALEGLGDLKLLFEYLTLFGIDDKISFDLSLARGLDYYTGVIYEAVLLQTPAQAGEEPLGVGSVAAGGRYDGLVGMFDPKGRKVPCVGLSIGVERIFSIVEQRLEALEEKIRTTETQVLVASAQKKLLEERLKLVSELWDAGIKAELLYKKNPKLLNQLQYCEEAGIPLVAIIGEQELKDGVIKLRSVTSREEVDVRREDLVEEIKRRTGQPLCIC
Summary of the method: as §1

P82650 = target: T16, P82650 (Homo sapiens, UniProt P82650)
T16 construct: performing SuTEx compound screening directly in cells; endogenous in cells; host or cells: DM93 cells (SILAC)
Summary of the method: as §1

Q9BPW8 = target: T17, Q9BPW8 (Homo sapiens, UniProt Q9BPW8)
T17 construct: endogenous in cells; host or cells: DM93 cells (SILAC), treated live; soluble proteome analysed
T17 sequence (Q9BPW8 36-284): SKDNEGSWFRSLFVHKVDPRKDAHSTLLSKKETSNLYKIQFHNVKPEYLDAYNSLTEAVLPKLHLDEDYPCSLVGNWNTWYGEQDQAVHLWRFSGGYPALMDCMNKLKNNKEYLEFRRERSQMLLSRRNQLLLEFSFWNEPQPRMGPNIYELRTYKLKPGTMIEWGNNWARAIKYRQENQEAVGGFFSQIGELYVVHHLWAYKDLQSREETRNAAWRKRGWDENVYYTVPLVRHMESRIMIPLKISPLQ
Summary of the method: as §1

Q9H788 = target: T18, Q9H788 (Homo sapiens, UniProt Q9H788)
T18 construct: endogenous in cells; host or cells: DM93 cells (SILAC), treated live; soluble proteome analysed
Summary of the method: as §1

T1 sequence (O43776 whole entry): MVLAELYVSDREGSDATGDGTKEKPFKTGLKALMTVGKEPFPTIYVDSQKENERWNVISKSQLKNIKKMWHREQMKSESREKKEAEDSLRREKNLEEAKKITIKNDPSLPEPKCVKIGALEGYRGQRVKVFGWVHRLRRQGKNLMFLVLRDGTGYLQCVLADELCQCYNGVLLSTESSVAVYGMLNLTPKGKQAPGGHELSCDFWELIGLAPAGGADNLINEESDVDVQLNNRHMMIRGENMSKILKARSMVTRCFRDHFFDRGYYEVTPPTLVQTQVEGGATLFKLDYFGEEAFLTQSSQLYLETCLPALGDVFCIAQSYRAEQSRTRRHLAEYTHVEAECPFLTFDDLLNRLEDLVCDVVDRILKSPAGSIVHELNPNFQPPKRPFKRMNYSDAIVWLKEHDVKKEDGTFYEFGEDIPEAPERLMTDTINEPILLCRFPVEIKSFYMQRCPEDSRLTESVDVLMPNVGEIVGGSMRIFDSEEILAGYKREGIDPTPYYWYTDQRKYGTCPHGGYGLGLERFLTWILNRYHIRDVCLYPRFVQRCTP

O=C(NC1CC1)c1ccc(S(=O)(=O)n2cncn2)cc1 [HHS-0101, 4-((1H-1,2,4-triazol-1-yl)sulfonyl)-N-cyclopropylbenzamide]
liganded tyrosine site 45 (O43776): HHS0101.Y (tyrosine sites that showed >80% reductions (SR >5) in probe labeling in cells treated with compounds (liganded sites))
liganded tyrosine site 209 (O60828): HHS0101.Y|HHS0401.Y (tyrosine sites that showed >80% reductions (SR >5) in probe labeling in cells treated with compounds (liganded sites))
liganded tyrosine site 57 (Q14847): HHS0101.Y (tyrosine sites that showed >80% reductions (SR >5) in probe labeling in cells treated with compounds (liganded sites))

O=C(NCC1CC1)c1ccc(S(=O)(=O)n2cncn2)cc1 [HHS-0201, 4-((1H-1,2,4-triazol-1-yl)sulfonyl)-N-(cyclopropylmethyl)benzamide]
liganded tyrosine site 718 (O60763): HHS0201.Y (tyrosine sites that showed >80% reductions (SR >5) in probe labeling in cells treated with compounds (liganded sites))
liganded tyrosine site 100 (P18206): HHS0201.Y|HHS0301.Y (tyrosine sites that showed >80% reductions (SR >5) in probe labeling in cells treated with compounds (liganded sites))
liganded tyrosine site 977 (P46940): HHS0201.Y|HHS0301.Y|HHS0701.Y (tyrosine sites that showed >80% reductions (SR >5) in probe labeling in cells treated with compounds (liganded sites))
liganded tyrosine site 160 (P62993): HHS0201.Y (tyrosine sites that showed >80% reductions (SR >5) in probe labeling in cells treated with compounds (liganded sites))
liganded tyrosine site 242 (Q00535): HHS0201.Y (tyrosine sites that showed >80% reductions (SR >5) in probe labeling in cells treated with compounds (liganded sites))
liganded tyrosine site 303 (Q8IWS0): HHS0201.Y (tyrosine sites that showed >80% reductions (SR >5) in probe labeling in cells treated with compounds (liganded sites))
liganded tyrosine site 42 (Q9UFN0): HHS0201.Y|HHS0301.Y|HHS0401.Y|HHS0701.Y (tyrosine sites that showed >80% reductions (SR >5) in probe labeling in cells treated with compounds (liganded sites))

O=C(NC1CCCCC1)c1ccc(S(=O)(=O)n2cncn2)cc1 [HHS-0301, 4-((1H-1,2,4-triazol-1-yl)sulfonyl)-N-cyclohexylbenzamide]
liganded tyrosine site 91 (P06400): HHS0301.Y|HHS0701.Y (tyrosine sites that showed >80% reductions (SR >5) in probe labeling in cells treated with compounds (liganded sites))
liganded tyrosine site 451 (Q06203): HHS0301.Y (tyrosine sites that showed >80% reductions (SR >5) in probe labeling in cells treated with compounds (liganded sites))

O=C(NCc1ccccc1)c1ccc(S(=O)(=O)n2cncn2)cc1 [HHS-0401, 4-((1H-1,2,4-triazol-1-yl)sulfonyl)-N-benzylbenzamide]
liganded tyrosine site 485 (P23921): HHS0401.Y (tyrosine sites that showed >80% reductions (SR >5) in probe labeling in cells treated with compounds (liganded sites))
liganded tyrosine site 87 (Q7Z6M1): HHS0401.Y|HHS0701.Y (tyrosine sites that showed >80% reductions (SR >5) in probe labeling in cells treated with compounds (liganded sites))

O=C(c1ccc(S(=O)(=O)n2cncn2)cc1)N1CCC(c2ccccc2)CC1 [HHS-0701, (4-((1H-1,2,4-triazol-1-yl)sulfonyl)phenyl)(4-phenylpiperidin-1-yl)methanone]
liganded tyrosine site 168 (P12081): HHS0701.Y (tyrosine sites that showed >80% reductions (SR >5) in probe labeling in cells treated with compounds (liganded sites))
liganded tyrosine site 172 (P12081): HHS0701.Y (tyrosine sites that showed >80% reductions (SR >5) in probe labeling in cells treated with compounds (liganded sites))
liganded tyrosine site 163 (P82650): HHS0701.Y (tyrosine sites that showed >80% reductions (SR >5) in probe labeling in cells treated with compounds (liganded sites))
liganded tyrosine site 83 (Q9BPW8): HHS0701.Y (tyrosine sites that showed >80% reductions (SR >5) in probe labeling in cells treated with compounds (liganded sites))
liganded tyrosine site 194 (Q9H788): HHS0701.Y (tyrosine sites that showed >80% reductions (SR >5) in probe labeling in cells treated with compounds (liganded sites))
